Measured values taken from US10485845B2, “Neuronal pain pathway” (THE TRUSTEES OF COLUMBIA UNIVERSITY IN THE CITY OF NEW YORK, priority 2005, dated 2019).
“Also recorded” adds a separate entry of the source.

Tests used:
PKG [1] = details: see Setyawan et al., 1999; read-out: inhibitory of PKG at concentration of; cited from earlier work
apPKG = experiment: In vitro kinase assay of recombinant apPKG (32P transfer from ATP to BPDEtide); format: biochemical, Aplysia; details: 100 nM 8-Br-cGMP, BPDEtide substrate
Protocol: FIG. 2A-C. apPKG is a type-1 PKG. […] Activity caused by autophosphorylation was subtracted using a peptide control reaction (see Materials and Methods). Note that the kinase activity was inhibited in the presence of 10 μM PKG inhibitor Rp-8-pCPT-cGMPS (RP-G). B, Kinase activity of active recombinant apPKG (25 ng) and bovine PKG type-Iα (bPKG Iα (50 ng) in the presence of four type-I PKG peptide substrates: peptide A, RKISASGP (SEQ ID NO:21); B, RKISASEFDRPLR (SEQ ID NO:22; BPDEtide); and D, RKRSRAE (SEQ ID NO:23) H2Btide). Peptide C, QKRPRRKDTP (SEQ ID NO:24), is a type-II PKG substrate. C, apPKG phosphorylates recombinant VASP at serine-239. Purified recombinant VASP-GST (0.5 μg) was incubated with active apPKG (100 ng) or the recombinant bovine PKG (50 ng), or in the kinase buffer alone, at room temperature for 20 min. After SDS-PAGE, a Western blot was probed with an anti-phospho-VASP (Ser 239) (p-VASP 5239) antibody.
These studies establish apPKG as a member of the soluble type-I family of PKGs.

Aplysia SNs [2] = experiment: Induction of LTH in axotomized SNs in vitro (electrophysiology); format: cell-based, Aplysia californica; details: for decrease in spike threshold / increase in repetitive firing: 10 μM, SNs grown in presence of inhibitor, third day in vitro
Protocol: FIG. 6A-D. Inhibiting NOS, sGC, or apPKG prevents the induction of LTH in SNs in vitro. SNs were removed from the cluster and grown in vitro in the presence of Rp-8-pCPT-cGMPS (RpcGMPS), Rp-8-pCPT-cAMPS (RpcAMPS), or ODQ (all 10 μM). Other SNs removed at the same time were not exposed to any inhibitors as controls (C). A, B, On the third day in vitro, 12 SNs exposed to Rp-cGMPS, Rp-cAMPS, or ODQ, and 12 control SNs were impaled with a microelectrode to assess repetitive firing in response to stimulation at three test currents (A) and to determine spike threshold (B). We examined the cells on the third day, and not later, to avoid more prolonged exposure to the drugs. […] Error bars indicate SEM, and the asterisks indicate significance (p<0.0001 in each case). […] C, Detection of nNOS mRNA in single SNs by RT-PCR. Fragments of appropriate lengths were amplified with primer sets for apnNOS, sensorin A, and the neuron-specific isoform of actin from five separate sets of samples from SNs in vivo (0) or after 16 hr in vitro. The size of the synthesized fragments detected by ethidium bromide staining on 2% agarose gels were identical with those predicted from the known sequences in the database. In addition, the PCR products were verified by DNA sequence analysis. Finally, there was no amplification in the absence of reverse transcriptase, indicating the RNA preparations were not contaminated by genomic DNA (bottom panel). Positions of molecular markers are indicated on the left. D, Effects of the NOS inhibitors on LTH. L-Thiocitrulline (50 μM) and L-NAME (1 mM) were used as described above. n, Number of SNs. The data were normalized to the average excitability of control cells in the same preparation. The asterisk indicates significance (p<0.001), comparing LTH with and without inhibitor by ANOVA and Dunnett's test. Error bars indicate SEM.
Medium was changed every 2 d. Drugs were washed out 1 hr before electrophysiological tests.
Before the start of each recording, the hemolymph was replaced with a 1:1 mixture of artificial seawater and culture medium (without hemolymph; pH 7.6). Standard techniques were used for intracellular stimulation and recording (Ambron et al., 1996). The soma spike threshold was measured with a standard series of 20 msec depolarizing pulses. Repetitive firing was quantified by counting the number of spikes evoked by a series of 2 sec depolarizing pulses at 1, 2, 3, 4, and 5 nA, or 1 sec depolarizing pulses at 2.5 times the current for the 20 msec threshold. Spike amplitude was measured from baseline to the peak of the action potential, and spike duration was the breadth of the action potential at one-half of its maximal height.
To investigate whether the appearance of the LTH requires apPKG activity, the SNs were removed from the ganglion in the presence of either the soluble guanylyl cyclase (sGC) inhibitor ODQ, the PKG inhibitor Rp-8-pCPT-cGMPS, or the PKA inhibitor Rp-cAMPS. The latter was used because PKA has properties in common with PKG (Scott, 1991; Francis and Corbin, 1994) and has been implicated in various forms of synaptic plasticity in Aplysia SNs (Ghirardi et al., 1992; Byrne and Kandel, 1996; Bedi et al., 1998; Muller and Carew, 1998; Chain et al., 1999; Liao et al., 1999; Sutton and Carew, 2000; Antonov et al., 2003). The cells were subsequently allowed to regenerate in the presence of the inhibitors in vitro, and on the third day, their electrophysiological properties were compared with those of SNs that were removed from the same ganglia at the same time, but that had not been exposed to a drug. […] Neither spike broadening nor amplitude were evaluated in these experiments.

apMAPK [3] = experiment: Axotomy-induced apMAPK nuclear translocation in SNs (D8 antibody immunostaining, confocal microscopy); format: cell-based, Aplysia; details: 10 μM, SNs in vitro; for nuclear staining of apMAPK: fixed on the third day
Protocol: Equal amounts of Alexa Fluor 546-labeled BSA, apPKG, or ERK1 were microinjected into the cytoplasm of SNs after 2 d in vitro. The neurites were then severed with a fine needle to elicit an injury response, and 30 min later, the cells were examined by confocal microscopy. […] Scale bar, 20 μm. B, Rp-8-pCPT-cGMPs inhibits axotomy-induced apMAPK nuclear translocation. SNs untreated as controls, and those exposed to either 10 μM Rp-8-pCPT-cGMPs (Rp-cGMPs) or Rp-cAMPs for 2 d in vitro, were immunostained with D8 antibody to localize apMAPK. Top, Representative examples of 2 μm optical sections of control SNs and those exposed to Rp-8-pCPT-cGMPs or Rp-cAMPs. Scale bar, 20 μm. Bottom, Histogram of the mean value of nuclear MAPK immunoreactivity. The staining intensity was determined by a person who was blind to the treatment that the cells received. n, Number of cells for each treatment. Asterisk indicates significant difference from control (p<0.05 by ANOVA and Newman-Keuls tests).
Ganglia, nerve, or cultured cells were fixed with 4% paraformaldehyde in PBS, pH 7.4. The primary antibody was diluted in TBS supplemented with 0.1-0.5% Triton X-100 in TBS and 5% goat serum, and incubated overnight at 4° C. After several washes, an Alexa Fluor 594- or 488-conjugated secondary antibody (Molecular Probes, Eugene, Oreg.) was applied for 1 hr at room temperature. Subsequently, the cells were visualized by confocal fluorescence microscopy (LSM510 confocalmicroscope; Zeiss, Oberkochen, Germany), and images were collected.
The inability of apPKG to enter the nucleus of Aplysia SNs is consistent with the idea that it contributes to the induction of LTH by promoting the nuclear import of apMAPK. If so, then inhibiting the apPKG pathway should block the axotomy-induced entry of apMAPK into the nucleus. Therefore, SNs were exposed in vitro either to the PKG blocker, Rp-8-pCPTcGMPS, or the PKA blocker, Rp-cAMPS, under the conditions that induce LTH (FIG. 6A). On the third day, the cells were fixed, permeabilized, and exposed to antibody D8 to visualize ap-MAPK. […]

PKG [4] = experiment: Blocking of PKG activity at the site of sciatic nerve injury in rat; format: in vivo; details: nerve injured in presence of inhibitor; four hours after injury
Protocol: FIG. 9. Relative PKG activity at various positions of the sciatic nerve relative to point of injury, shown schematically above the graph.
The experiment was carried out as follows. A rat was anesthetized using a standard protocol and the sciatic nerve was exposed and injured in either the absence or the presence of RP-G, or an inhibitor of PKA, Rp-8-pCPT-cAMPS, (“RP-A”). Four hours later, the nerve was sectioned as shown in the schematic above the graph in FIG. 9, and each segment was assayed for PKG activity. In the absence of inhibitor (black bars), active PKG had been transported toward the cell bodies and was enriched in P3.

Aplysia SNs [5] = experiment: Induction of LTH in axotomized SNs in vitro (electrophysiology); format: cell-based, Aplysia californica; details: inhibitor added to 2-d-cultured SN
apMAPK [6] = test system: apMAPK
Protocol: Top, Left, Twenty-five micrograms of a pleural ganglia lysate collected at the indicated times after p5-p9 nerve crush were resolved by SDS-PAGE, and a Western blot was probed with Ab pTpYmapk to detect active ERK-MAPKs. […] All of the values were normalized to levels of total apMAPK. […] Each of the following experiments (B-E) was repeated twice at least, and representative results are shown. […] Left, Pleural neurons were removed from a noninjured animal, a lysate was prepared, and 25 μg was incubated with 100 ng of active apPKG protein or with 1 μM 8-Br-cGMP in the presence or absence of 10 μM U0126. Right, Twenty-five micrograms of axoplasm was incubated with active apPKG as above. Active apMAPK was detected by immunoblotting with Ab pTpYmapk.
ERK activity was assayed as described (Sung et al., 2001). Briefly, proteins and 500 μM ATP were incubated in kinase buffer for 20 min at room temperature. The reaction mixtures were resolved on 10% SDS polyacrylamide gels and subjected to Western blotting with antibody (Ab)pTpYmapk, AbpYmapk, AbpTmapk, or AbpElk1.

rats = details: intrathecal, 10 and 60 minutes later; cited from earlier work
Aplysia SNs [7] = details: SNs exposed to drug in vitro
Protocol: SNs were isolated from the pleural ganglia of 50-80 gm animals and were plated on poly-L-lysine-coated dishes containing L15 medium and 50% hemolymph (Dagan and Levitan, 1981; Glanzman etal., 1989). Cultures were maintained at 18° C. for up to 7 d. Medium was changed every 2 d. Drugs were washed out 1 hr before electrophysiological tests.

10″ deoxybalanol
IC50 (PKG [1]): 31 nM

14″ decarboxy balanol
IC50 (PKG [1]): 19 nM

Nc1nc2c(nc(Sc3ccc(Cl)cc3)n2C2OC3COP(O)(=S)OC3C2O)c(=O)[nH]1 (single isomer, unassigned) [Rp-8-pCPT-cGMPS, guanosine 3′,5′-cyclic monophosphorothioate, 8-(4-chlorophenylthio)-, Rp isomer]
kinase activity of purified inactive recombinant apPKG (apPKG; 10 μM inhibitor): inhibited | decrease in spike threshold (Aplysia SNs [2]): prevented | increase in repetitive firing (Aplysia SNs [2]): prevented | decrease in spike threshold (Aplysia SNs [2]; listed as Rp-cGMPS): significantly prevented | increase in repetitive firing (Aplysia SNs [2]; listed as Rp-cGMPS): significantly reduced | reduction in the level of apMAPK in the nucleus of the SNs (apMAPK [3]): nearly threefold reduction | nuclear staining of apMAPK (apMAPK [3]): dramatic reduction | PKG activity in sciatic nerve segments (PKG [4]): abolished the activity | appearance of excitability (Aplysia SNs [5]): Neither Rp-8-pCPT-cGMPS nor ODQ inhibited

Nc1ncnc2c1ncn2[C@@H]1O[C@@H]2COP(O)(=S)O[C@H]2[C@H]1O (single isomer, unassigned) [Rp-cAMPS, adenosine 3′,5′-cyclic monophosphorothioate, Rp isomer]
decrease in spike threshold (Aplysia SNs [2]): no significant effect; also recorded: not significant | increase in repetitive firing (Aplysia SNs [2]): no significant effect | nuclear staining of apMAPK (apMAPK [3]): same levels

Nc1nc2c(nc(Br)n2[C@@H]2O[C@@H]3COP(=O)(O)O[C@H]3[C@H]2O)c(=O)[nH]1 [8-Br-cGMP]
activation of inactive apPKG (apPKG): activated | level of active apMAPK (apMAPK [6]; 1 μM 8-Br-cGMP added to 25 μg lysate): markedly enhanced

COC(=O)[C@@H](N)CCCN=C(N)N[N+](=O)[O-].Cl [L-NAME, N^G-nitro-L-arginine methyl ester hydochioride]
LTH (maximum firing relative to untreated controls) (Aplysia SNs [2]; 1 mM, SNs in vitro): reduced LTH

NC(=S)NCCC[C@H](N)C(=O)O [L-Thiocitrulline, L-thiocitrulline]
maximum firing relative to untreated controls (LTH) (Aplysia SNs [2]; 50 μM, SNs in vitro): markedly reduced

O=c1onc2cnc3ccccc3n12 [ODQ, 1-H[1,2,4]oxadiazolo[4,3-a]quinoxalin-1-one]
decrease in spike threshold (Aplysia SNs [2]): significantly prevented | increase in repetitive firing (Aplysia SNs [2]): prevented; also recorded: significantly reduced | appearance of excitability (Aplysia SNs [5]): Neither Rp-8-pCPT-cGMPS nor ODQ inhibited

Nc1ncnc2c1nc(Sc1ccc(Cl)cc1)n2C1OC2COP(O)(=S)OC2C1O (stereo not drawn) [RP-A, Rp-8-pCPT-cAMPS]
PKG activity in sciatic nerve segments (PKG [4]): did not change this pattern

CCN(CC)CC.Nc1nc2c(nc(Sc3ccc(Cl)cc3)n2[C@@H]2O[C@@H]3COP(O)(=S)O[C@H]3[C@H]2O)c(=O)[nH]1 (stereo partly drawn) [Rp-8-[4-chlorophenyl)thio-cGMPS triethylamine]
antinociception (rats): significant antinociception

N#CC(=C(/N)Sc1ccccc1N)/C(C#N)=C(\N)Sc1ccccc1N [U0126]
extent or pattern of neurite growth (Aplysia SNs [7]): severe growth defects | block of apMAPK activation by active apPKG or 8-Br-cGMP (apMAPK [6]; 10 μM U0126): not blocked

O=C(NC1CNCCCC1OC(=O)c1cc(O)c(C(=O)c2c(O)cccc2C(=O)O)c(O)c1)c1ccc(O)cc1 (stereo not drawn) [balanol]
IC50 (PKG [1]): 1.6 nM

balanol-7R
IC50 (PKG [1]): 291 nM
